Tests used:
[1] = Body weight of animals in the mouse collagen-induced arthritis model; format: in vivo; details: oral, X8 1 mg/kg once a day; for body weight of animals, Mean/g: mean of group, Methotrexate 0.25 mg/kg once a week, Tofacitinib 5 mg/kg once a day
Description: (§1) Sixty male DBA/1J mice (9-10 weeks old, H-2q haplotype) were acclimatized in a standard animal room for one week and then randomly divided into 5 groups. Except for the healthy control group, the rest were inoculated with collagen antigen injection, and then received oral treatment with different compounds. The brief procedure was to mix bovine type II collagen (purchased from Chondrex, 20021) with an equal volume of Freund's complete adjuvant (purchased from Sigma, F5881), the concentration was 4 mg/ml, and it was treated with a homogenizer at a speed of 20,000 revolutions/min for 5-10 minutes. A needle was inserted between the left side of the dorsal caudal artery and the lateral vein of the mouse, and 50 microliters of modeling agent was injected subcutaneously. 21 days after the first injection, another injection was injected between the right side of the dorsal tail artery and the lateral vein of the mouse. After the first injection, oral administration was started. The drug was formulated with […] PEG300, and it was prepared for immediate use. […] The total score was between 0-12 points, and the swelling of the foot after vaccination was not calculated.

[2] = test system: mouse collagen-induced arthritis model; assay: Therapeutic efficacy in a mouse collagen-induced arthritis model (clinical score); format: in vivo; details: mean of group, total score 0-12, oral, Methotrexate 0.25 mg/kg once a week, Tofacitinib 5 mg/kg once a day, X8 1 mg/kg once a day
Description: Example of Effect 2: Evaluation of the Therapeutic Efficacy of X8 Compound in a Mouse Collagen-Induced Arthritis Model
as §1

[3] = test system: STAT5 Y694 phosphorylation; assay: HTRF experiment: STAT5 Y694 phosphorylation in Hela cells stimulated with human interferon beta; format: cell-based; details: 2 hours pretreatment, 10 nM human interferon beta 30 minutes
[4] = test system: STAT5 Y694 phosphorylation; assay: Protein electrophoresis and blotting of STAT5 Y694 phosphorylation in Jurkat cells stimulated with human interferon beta; format: cell-based; details: for Example of Effect 1: Inhibiting Ability (Protein Electrophoresis and Blotting): observed pSTAT5 bands at 10 μM and 100 μM; for Inhibiting Ratio (0% for vehicle control): 1 hour pretreatment, 20 ng/ml human interferon beta 30 minutes, pSTAT5/GAPDH
Outline: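 Serum-free Jurkat cells pretreated with compound 1 h, then stimulated with 20 ng/ml human interferon beta for 30 min at 37° C. pSTAT5 measured by western blot with chemiluminescence, normalized to GAPDH and expressed as percent of DMSO control.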

C[C@@H]1CCN(C(=O)CC#N)C[C@@H]1N(C)c1ncnc2[nH]ccc12 [Tofacitinib, tofacitinib]
body weight of animals, Mean/g ([1]; day 0): 21.94 g | body weight of animals, Mean/g ([1]; day 4): 22.41 g | body weight of animals, Mean/g ([1]; day 7): 22.76 g | body weight of animals, Mean/g ([1]; day 11): 22.79 g | body weight of animals, Mean/g ([1]; day 14): 22.55 g | body weight of animals, Mean/g ([1]; day 18): 22.87 g | body weight of animals, Mean/g ([1]; day 20): 23.20 g | body weight of animals, Mean/g ([1]; day 25): 22.48 g | body weight of animals, Mean/g ([1]; day 28): 22.46 g | body weight of animals, Mean/g ([1]; day 31): 22.37 g | body weight of animals, Mean/g ([1]; day 33): 22.65 g | body weight of animals, Mean/g ([1]; day 35): 22.43 g | body weight of animals, Mean/g ([1]; day 38): 22.30 g | body weight of animals, Mean/g ([1]; day 40): 20.90 g | body weight of animals, Mean/g ([1]; day 42): 22.13 g | body weight of animals, Mean/g ([1]; day 45): 22.30 g | effect on body weight of animals (in words) ([1]; whole experiment, days 0-45, methotrexate 0.25 mg/kg once a week, tofacitinib 5 mg/kg once a day): weight loss in the late stage of the experiment | clinical score of arthritis, Mean (the larger the value, the more severe the disease) ([2]; day 0): 0.00 | clinical score of arthritis, Mean (the larger the value, the more severe the disease) ([2]; day 21): 0.00 | clinical score of arthritis, Mean (the larger the value, the more severe the disease) ([2]; day 25): 0.00 | clinical score of arthritis, Mean (the larger the value, the more severe the disease) ([2]; day 28): 0.81 | clinical score of arthritis, Mean (the larger the value, the more severe the disease) ([2]; day 31): 1.83 | clinical score of arthritis, Mean (the larger the value, the more severe the disease) ([2]; day 33): 2.19 | clinical score of arthritis, Mean (the larger the value, the more severe the disease) ([2]; day 35): 2.52 | clinical score of arthritis, Mean (the larger the value, the more severe the disease) ([2]; day 38): 2.77 | clinical score of arthritis, Mean (the larger the value, the more severe the disease) ([2]; day 40): 2.62 | clinical score of arthritis, Mean (the larger the value, the more severe the disease) ([2]; day 42): 3.14 | clinical score of arthritis, Mean (the larger the value, the more severe the disease) ([2]; day 45): 2.90

O=C(Cc1ccc(C(F)(F)F)cc1)N1CCC(N2C(=O)NCc3ccccc32)CC1 [GEN1-162, 1-(1-(2-(4-(trifluoromethyl)phenyl)acetyl)piperidin-4-yl)-3,4-dihydroquinazolin-2(1H)-one]
Example of Effect 3: Inhibiting Ratio@10 μM (HTRF Experiment) [3]: 22.04% | Example of Effect 1: Inhibiting Ability (Protein Electrophoresis and Blotting) [4]: +

O=C(Cc1ccc2ncccc2c1)N1CCC(n2c(=S)[nH]c3ccccc32)CC1 [GEN1-137, 2-(quinolin-6-yl)-1-(4-(2-thio-2,3-dihydro-1H-benzo(d)imidazol-1-yl)piperidin-1-yl)ethan-1-one]
Example of Effect 3: Inhibiting Ratio@10 μM (HTRF Experiment) [3]: 19.51% | Example of Effect 1: Inhibiting Ability (Protein Electrophoresis and Blotting) [4]: +

O=C(Cc1ccc(C(F)(F)F)cc1)N1CCC(n2c(=O)[nH]c3ccc(C4CC4)cc32)CC1 [GEN1-089, 6-cyclopropyl-1-(1-(2-(4-(trifluoromethyl)phenyl)acetyl)piperidin-4-yl)-1H-benzo[d]imidazol-2(3H)-one]
Example of Effect 3: Inhibiting Ratio@10 μM (HTRF Experiment) [3]: 7.83% | Example of Effect 1: Inhibiting Ability (Protein Electrophoresis and Blotting) [4]: +

O=C(Cc1ccc(C(F)(F)F)cc1)N1CCC(n2c(=O)[nH]c3cccc(C(F)(F)F)c32)CC1 [GEN1-013, 7-(trifluoromethyl)-1-(1-(2-(4-(trifluoromethyl)phenyl)acetyl)piperidin-4-yl)-1H-benzo[d]imidazole-2(3H)-one]
Example of Effect 3: Inhibiting Ratio@10 μM (HTRF Experiment) [3]: 20.29% | Inhibiting Ratio (0% for vehicle control) ([4]; 1 μM): 12.4% | Inhibiting Ratio (0% for vehicle control) ([4]; 10 μM): 62.6% | Inhibiting Ratio (0% for vehicle control) ([4]; 100 μM): 97.0% | Example of Effect 1: Inhibiting Ability (Protein Electrophoresis and Blotting) [4]: +

O=C(Cc1ccc2c(c1)OCCO2)N1CCC(n2c(=O)[nH]c3cccc(C(F)(F)F)c32)CC1 [GEN1-159, 1-(1-(2-(2,3-dihydrobenzo[b][1,4]dioxin-6-yl)acetyl)piperidin-4-yl)-7-(trifluoromethyl)-1,3-dihydro-2H-benzo[d]imidazol-2-one]
Example of Effect 3: Inhibiting Ratio@10 μM (HTRF Experiment) [3]: 22.99% | Example of Effect 1: Inhibiting Ability (Protein Electrophoresis and Blotting) [4]: +

COc1ccc(CC(=O)N2CCC(n3c(=O)[nH]c4cccc(C(F)(F)F)c43)CC2)cc1OC [GEN1-168, 1-(1-(2-(3,4-dimethoxyphenyl)acetyl)piperidin-4-yl)-7-(trifluoromethyl)-1,3-dihydro-2H-benzo[d]imidazol-2-one]
Example of Effect 3: Inhibiting Ratio@10 μM (HTRF Experiment) [3]: 47.57% | Example of Effect 1: Inhibiting Ability (Protein Electrophoresis and Blotting) [4]: +

CC(=O)/N=c1\[nH]c2cccc(C(F)(F)F)c2n1C1CCN(C(=O)Cc2ccc3ncccc3c2)CC1 [GEN1-171]
Example of Effect 3: Inhibiting Ratio@10 μM (HTRF Experiment) [3]: 9.85% | Example of Effect 1: Inhibiting Ability (Protein Electrophoresis and Blotting) [4]: −

N#Cc1cccc2[nH]c(=O)n(C3CCN(C(=O)Cc4ccc5ncccc5c4)CC3)c12 [GEN1-151, 2-oxo-3-(1-(2-(quinolin-6-yl)acetyl)piperidin-4-yl)-2,3-dihydro-1H-benzo[d]imidazol-4-carbonitrile]
Example of Effect 3: Inhibiting Ratio@10 μM (HTRF Experiment) [3]: 39.02% | Example of Effect 1: Inhibiting Ability (Protein Electrophoresis and Blotting) [4]: +

Cc1[nH]c(=O)n(C2CCN(C(=O)Cc3ccc(C(F)(F)F)cc3)CC2)c1-c1ccccc1 [GEN1-166, 4-methyl-5-phenyl-1-(1-(2-(4-(trifluoromethyl)phenyl)acetyl)piperidin-4-yl)-1H-imidazole-2(3H)-one]
Example of Effect 3: Inhibiting Ratio@10 μM (HTRF Experiment) [3]: 15.16% | Example of Effect 1: Inhibiting Ability (Protein Electrophoresis and Blotting) [4]: +

O=C(Cc1ccc(C(F)(F)F)cc1)N1CCC(N2Cc3ccccc3NC2=O)CC1 [GEN1-161, 3-(1-(2-(4-(trifluoromethyl)phenyl)acetyl)piperidin-4-yl)-3,4-dihydroquinazolin-2(1H)-one]
Example of Effect 3: Inhibiting Ratio@10 μM (HTRF Experiment) [3]: 1.38% | Example of Effect 1: Inhibiting Ability (Protein Electrophoresis and Blotting) [4]: +

O=C(Cc1ccc(C(F)(F)F)cc1)N1CCC(n2c(=O)[nH]c3c(C(F)(F)F)cccc32)CC1 [GEN1-001, 4-(trifluoromethyl)-1-(1-(2-(4-(trifluoromethyl)phenyl)acetyl)piperidin-4-yl)-1H-benzo[d]imidazole-2(3H)-one]
Example of Effect 3: Inhibiting Ratio@10 μM (HTRF Experiment) [3]: 3.75% | Inhibiting Ratio (0% for vehicle control) ([4]; 1 μM): 11.0% | Inhibiting Ratio (0% for vehicle control) ([4]; 10 μM): 29.2% | Inhibiting Ratio (0% for vehicle control) ([4]; 100 μM): 96.8% | Example of Effect 1: Inhibiting Ability (Protein Electrophoresis and Blotting) [4]: +
